Reference: US7220735B2, “Benzimidazolone histamine H3 antagonists” (Schering Corporation, priority 2002, dated 2007)

Biological target: T1, H3 receptors (Cavia porcellus, UniProt Q9JI35)
T1 construct: The source of the H3 receptors in this experiment was guinea pig brain; from tissue; host or cells: guinea pig brain membranes
Assay: H3-Receptor Binding Assay (guinea pig brain membranes)
Settings: 3 nM [3H]R-α-methyl histamine or 3 nM [3H]Nα-methyl histamine, 30° C., 30 min
Protocol: The source of the H3 receptors in this experiment was guinea pig brain. The animals weighed 400–600 g. The brain tissue was homogenized with a solution of 50 mM Tris, pH 7.5. The final concentration of tissue in the homogenization buffer was 10% w/v. […] The resulting supernatants were then centrifuged at 50,000×g for 20 min. in order to sediment the membranes, which were next washed three times in homogenization buffer (50,000×g for 20 min. each). The membranes were frozen and stored at −70° C. until needed.
All compounds to be tested were dissolved in DMSO and then diluted into the binding buffer (50 mM Tris, pH 7.5) such that the final concentration was 2 μg/ml with 0.1% DMSO. Membranes were then added (400 μg of protein) to the reaction tubes. The reaction was started by the addition of 3 nM [^3H]R-α-methyl histamine (8.8 Ci/mmol) or 3 nM [^3H]N^α-methyl histamine (80 Ci/mmol) and continued under incubation at 30° C. for 30 min. Bound ligand was separated from unbound ligand by filtration, and the amount of radioactive ligand bound to the membranes was quantitated by liquid scintillation spectrometry.

T1 sequence (Q9JI35 whole entry): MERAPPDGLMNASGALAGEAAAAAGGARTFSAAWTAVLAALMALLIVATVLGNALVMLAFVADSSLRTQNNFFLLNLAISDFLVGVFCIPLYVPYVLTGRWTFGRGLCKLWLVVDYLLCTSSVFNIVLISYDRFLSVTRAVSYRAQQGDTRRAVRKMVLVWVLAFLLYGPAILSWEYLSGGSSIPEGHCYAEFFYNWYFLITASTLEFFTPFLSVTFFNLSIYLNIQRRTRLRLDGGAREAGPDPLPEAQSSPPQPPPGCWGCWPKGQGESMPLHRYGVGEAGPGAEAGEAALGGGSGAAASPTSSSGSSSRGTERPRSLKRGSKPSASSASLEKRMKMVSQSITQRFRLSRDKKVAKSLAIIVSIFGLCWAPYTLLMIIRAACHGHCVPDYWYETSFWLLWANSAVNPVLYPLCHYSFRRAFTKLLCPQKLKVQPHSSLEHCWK

Ki: 0.2 nM
Compound: O=C(C1CCN(Cc2ccncc2)CC1)N1CCC(n2c(=O)n(CCn3cccc3)c3ccccc32)CC1 [Example 1AL]
